From US10508088B2, “Methods using HDAC11 inhibitors” (FORMA Therapeutics, Inc., priority 2016, dated 2019)

Each molecule was assayed against Full length human recombinant HDAC11 (Homo sapiens (Human), UniProt Q96DB2) (assay: Enzymatic HDAC11 assay, electrophoretic mobility shift). Settings: substrate FAM-RHKK(tri-fluor-Ac)-NH2, read-out: HDAC11 IC50 Range.
Assay type: biochemical
Experimental: The enzymatic HDAC11 assay was performed using electrophoretic mobility shift assay. Full length human recombinant HDAC11 protein was expressed in baculoviral system and purified by affinity chromatography. The enzymatic reactions were assembled in 384 well plates in a total volume of 25 μL in a reaction buffer composing: 100 mM HEPES, pH 7.5, 25 mM KCl, 0.1% bovine serum albumin, 0.01% Triton X-100, 1% DMSO (from compounds) 2 μM of the fluorescently labeled peptide substrate and enzyme. The enzyme was added at a final concentration of 10 nM. The peptide substrate FAM-RHKK(tri-fluor-Ac)-NH2 was used. The compounds were tested at 12 concentrations spaced by 3× dilution intervals. Negative control samples (0%-inhibition in the absence of inhibitor) and positive control samples (100%-inhibition) were assembled in replicates of four in each assay plate. The reactions were incubated at 25° C. and quenched by the addition of 45 μL of termination buffer (100 mM HEPES, pH 7.5, 0.01% Triton X-100, 0.05% SDS).
The terminated assay plates were analyzed on LabChip® 3000 microfluidic electrophoresis instrument (Perkin Elmer/Caliper Life Sciences). The fluorescence intensity of the electrophoretically separated de-acetylated product and substrate peptide was measured. Activity in each sample was determined as the product to sum ratio (PSR):P/(S+P), where P is the peak height of the product peptide and S is the peak height of the substrate peptide. Percent inhibition (Pinh) is determined using the following equation: Pinh=(PSR0%−PSRinh)/(PSR0%−PSR100%)*100,
where PSRinh is the product sum ratio in the presence of inhibitor, PSR0% is the average product sum ration in the absence of inhibitor and PSR100% is the average product sum ratio in 100%-inhibition control samples. The IC50 values of inhibitors were determined by fitting the percent inhibition curves with 4 parameter dose-response model using XLfit 4 software.

Sequence of Full length human recombinant HDAC11 (Q96DB2 whole entry): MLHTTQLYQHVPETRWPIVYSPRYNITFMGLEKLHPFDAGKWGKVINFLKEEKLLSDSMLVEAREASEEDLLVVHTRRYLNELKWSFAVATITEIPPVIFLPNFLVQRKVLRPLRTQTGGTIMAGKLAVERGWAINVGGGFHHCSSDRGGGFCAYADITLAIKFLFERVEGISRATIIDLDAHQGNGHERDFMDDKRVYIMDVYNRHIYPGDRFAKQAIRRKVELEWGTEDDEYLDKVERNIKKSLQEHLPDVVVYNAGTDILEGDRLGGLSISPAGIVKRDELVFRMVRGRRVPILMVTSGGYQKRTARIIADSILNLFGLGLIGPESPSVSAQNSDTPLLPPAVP

IC50, > 1 µM:
O=C(NO)c1cccc2c1CC1(CCN(Cc3ccc(Cl)cc3)CC1)C2 [II-62, 1′-(4-chlorobenzyl)-N-hydroxy-1,3-dihydrospiro[indene-2,4′-piperidine]-4-carboxamide]
O=C(NO)c1cccc2c1CC1(CCN(C3CC3)CC1)C2 [II-63, 1′-cyclopropyl-N-hydroxy-1,3-dihydrospiro[indene-2,4′-piperidine]-4-carboxamide]
O=C(NO)c1cccc2c1CC1(CCN(Cc3ccccc3)CC1)C2 [II-64, 1′-benzyl-N-hydroxy-1,3-dihydrospiro[indene-2,4′-piperidine]-4-carboxamide]
O=C(NO)c1cccc2c1CC1(CCN(Cc3ccccc3)CC1)C2=O [II-65, 1′-benzyl-N-hydroxy-1-oxo-1,3-dihydrospiro[indene-2,4′-piperidine]-4-carboxamide]
O=C(NO)c1cccc2c1CC1(CCN(Cc3ccccc3)CC1)C2O (stereo not shown) [II-66, 1′-benzyl-N,1-dihydroxy-1,3-dihydrospiro[indene-2,4′-piperidine]-4-carboxamide]
O=C(NO)c1cccc2c1CC1(CC2)CCN(Cc2ccc(Cl)cc2)C1=O (stereo not shown) [II-69, 1′-(4-chlorobenzyl)-N-hydroxy-2′-oxo-3,4-dihydro-1H-spiro[naphthalene-2,3′-pyrrolidine]-8-carboxamide]
O=C(NO)c1cccc2c1CC1(CC2)CCN(c2cccc(C(F)(F)F)c2)C1=O (stereo not shown) [II-72, N-hydroxy-2′-oxo-1′-(3-(trifluoromethyl)phenyl)-3,4-dihydro-1H-spiro[naphthalene-2,3′-pyrrolidine]-8-carboxamide]
O=C(NO)c1cccc2c1CC1(CC2)CCN(c2ccccc2C(F)(F)F)C1=O (stereo not shown) [II-73, N-hydroxy-2′-oxo-1′-(2-(trifluoromethyl)phenyl)-3,4-dihydro-1H-spiro[naphthalene-2,3′-pyrrolidine]-8-carboxamide]
CN(C)C(=O)N1CCC2(CCc3cccc(C(=O)NO)c3O2)CC1 [II-74, N8-hydroxy-N1′,N1′-dimethylspiro[chromane-2,4′-piperidine]-1′,8-dicarboxamide]
O=C(NO)c1cccc2c1OC1(CC2)CCN(C(=O)c2ccc(F)cc2)CC1 [II-75, 1′-(4-fluorobenzoyl)-N-hydroxyspiro[chromane-2,4′-piperidine]-8-carboxamide]
O=C(NO)c1cccc2c1OC1(CC2)CCN(S(=O)(=O)C2CCCCC2)CC1 [II-76, 1′-(cyclohexylsulfonyl)-N-hydroxyspiro[chromane-2,4′-piperidine]-8-carboxamide]
CC1(C(=O)N2CCC3(CCc4cccc(C(=O)NO)c4O3)CC2)CCOCC1 [II-77, N-hydroxy-1′-(4-methyltetrahydro-2H-pyran-4-carbonyl)spiro[chromane-2,4′-piperidine]-8-carboxamide]
O=C(NO)c1cccc2c1OC1(CC2)CCN(C(=O)Cc2ccccc2)CC1 [II-79, N-hydroxy-1′-(2-phenylacetyl)spiro[chromane-2,4′-piperidine]-8-carboxamide]
O=C(NO)c1cccc2c1OC1(CC2)CCN(Cc2ccc(F)cc2)CC1 [II-80, 1′-(4-fluorobenzyl)-N-hydroxyspiro[chromane-2,4′-piperidine]-8-carboxamide]
O=C(NO)c1cccc2c1OC1(CC2)CCN(C2CCCCC2)CC1 [II-81, 1′-cyclohexyl-N-hydroxyspiro[chromane-2,4′-piperidine]-8-carboxamide]
O=C(NO)c1cccc2c1OC1(CC2)CCN(c2ccc(C(F)(F)F)cn2)CC1 [II-82, N-hydroxy-1′-(5-(trifluoromethyl)pyridin-2-yl)spiro[chromane-2,4′-piperidine]-8-carboxamide]
Cc1ccc(N2CCC3(CCc4cccc(C(=O)NO)c4O3)CC2)cc1F [II-83, 1′-(3-fluoro-4-methylphenyl)-N-hydroxyspiro[chromane-2,4′-piperidine]-8-carboxamide]
O=C(NO)c1cccc2c1CCC1(CCN(Cc3ccc(Cl)cc3)C1=O)C2 (stereo not shown) [II-87, 1′-(4-chlorobenzyl)-N-hydroxy-2′-oxo-3,4-dihydro-1H-spiro[naphthalene-2,3′-pyrrolidine]-5-carboxamide]

IC50, < 0.5 µM:
O=C(NO)c1cccc2c1CC1(CC2)CCN(Cc2ccc(Cl)c(C(F)(F)F)c2)C1=O (stereo not shown) [II-67, 1′-(4-chloro-3-(trifluoromethyl)benzyl)-N-hydroxy-2′-oxo-3,4-dihydro-1H-spiro[naphthalene-2,3′-pyrrolidine]-8-carboxamide]
O=C(NO)c1cccc2c1CC1(CC2)CCN(Cc2ccc(C(F)(F)F)c(F)c2)C1=O (stereo not shown) [II-68, 1′-(3-fluoro-4-(trifluoromethyl)benzyl)-N-hydroxy-2′-oxo-3,4-dihydro-1H-spiro[naphthalene-2,3′-pyrrolidine]-8-carboxamide]
O=C(NO)c1cccc2c1OC1(CC2)CCN(C(=O)C2(c3cccc(C(F)(F)F)c3)CC2)CC1 [II-78, N-hydroxy-1′-(1-(3-(trifluoromethyl)phenyl)cyclopropane-1-carbonyl)spiro[chromane-2,4′-piperidine]-8-carboxamide]
O=C(NO)c1cccc2c1CCC1(CCN(Cc3ccc(Cl)c(C(F)(F)F)c3)C1=O)C2 (stereo not shown) [II-84, 1′-(4-chloro-3-(trifluoromethyl)benzyl)-N-hydroxy-2′-oxo-3,4-dihydro-1H-spiro[naphthalene-2,3′-pyrrolidine]-5-carboxamide]
O=C(NO)c1cccc2c1CCC1(CCN(Cc3ccc(C(F)(F)F)cc3)C1=O)C2 (stereo not shown) [II-85, N-hydroxy-2′-oxo-1′-(4-(trifluoromethyl)benzyl)-3,4-dihydro-1H-spiro[naphthalene-2,3′-pyrrolidine]-5-carboxamide]
O=C(NO)c1cccc2c1CCC1(CCN(Cc3ccc(C(F)(F)F)c(F)c3)C1=O)C2 (stereo not shown) [II-86, 1′-(3-fluoro-4-(trifluoromethyl)benzyl)-N-hydroxy-2′-oxo-3,4-dihydro-1H-spiro[naphthalene-2,3′-pyrrolidine]-5-carboxamide]
O=C(NO)c1cccc2c1CCC1(CCN(c3ccc(C(F)(F)F)cc3)C1=O)C2 (stereo not shown) [II-88, N-hydroxy-2′-oxo-1′-(4-(trifluoromethyl)phenyl)-3,4-dihydro-1H-spiro[naphthalene-2,3′-pyrrolidine]-5-carboxamide]

IC50, 0.5 to 1 µM:
O=C(NO)c1cccc2c1CC1(CC2)CCN(Cc2ccc(C(F)(F)F)cc2)C1=O (stereo not shown) [II-70, N-hydroxy-2′-oxo-1′-(4-(trifluoromethyl)benzyl)-3,4-dihydro-1H-spiro[naphthalene-2,3′-pyrrolidine]-8-carboxamide]
O=C(NO)c1cccc2c1CC1(CC2)CCN(c2ccc(C(F)(F)F)cc2)C1=O (stereo not shown) [II-71, N-hydroxy-2′-oxo-1′-(4-(trifluoromethyl)phenyl)-3,4-dihydro-1H-spiro[naphthalene-2,3′-pyrrolidine]-8-carboxamide]
O=C(NO)c1cccc2c1CCC1(CCN(c3cccc(C(F)(F)F)c3)C1=O)C2 (stereo not shown) [II-89, N-hydroxy-2′-oxo-1′-(3-(trifluoromethyl)phenyl)-3,4-dihydro-1H-spiro[naphthalene-2,3′-pyrrolidine]-5-carboxamide]
